{"source": "paper PMC4826332", "about": "(Journal of medicinal chemistry, 2015)", "key": {"[1]": {"test_system": "HepG2 cells", "assay": "Alamar blue viability assay in HepG2 cells", "assay_type": "cell-based, human"}, "[2]": {"target": "T1, P450 1A2 in HepG2 cells (Homo sapiens, UniProt P05177)", "T1 sequence (P05177 2-516)": "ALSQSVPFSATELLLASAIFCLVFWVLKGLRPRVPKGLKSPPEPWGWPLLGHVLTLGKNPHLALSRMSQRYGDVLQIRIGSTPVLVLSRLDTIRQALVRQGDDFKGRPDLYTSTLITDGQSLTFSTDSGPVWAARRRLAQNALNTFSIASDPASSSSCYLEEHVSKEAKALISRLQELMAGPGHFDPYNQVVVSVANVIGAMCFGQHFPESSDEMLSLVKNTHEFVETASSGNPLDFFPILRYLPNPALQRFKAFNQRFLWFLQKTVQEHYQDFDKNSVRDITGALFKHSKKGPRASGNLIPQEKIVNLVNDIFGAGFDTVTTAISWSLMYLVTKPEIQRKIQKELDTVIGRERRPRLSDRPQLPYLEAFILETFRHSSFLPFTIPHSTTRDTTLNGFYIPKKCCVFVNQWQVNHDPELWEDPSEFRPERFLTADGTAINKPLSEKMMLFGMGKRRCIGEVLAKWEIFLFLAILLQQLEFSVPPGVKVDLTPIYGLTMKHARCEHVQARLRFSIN", "assay": "MROD assay in HepG2 cells"}, "[3]": {"target": "aryl hydrocarbon receptor (AhR) (Homo sapiens, UniProt P35869)", "sequence (P35869 11-848)": "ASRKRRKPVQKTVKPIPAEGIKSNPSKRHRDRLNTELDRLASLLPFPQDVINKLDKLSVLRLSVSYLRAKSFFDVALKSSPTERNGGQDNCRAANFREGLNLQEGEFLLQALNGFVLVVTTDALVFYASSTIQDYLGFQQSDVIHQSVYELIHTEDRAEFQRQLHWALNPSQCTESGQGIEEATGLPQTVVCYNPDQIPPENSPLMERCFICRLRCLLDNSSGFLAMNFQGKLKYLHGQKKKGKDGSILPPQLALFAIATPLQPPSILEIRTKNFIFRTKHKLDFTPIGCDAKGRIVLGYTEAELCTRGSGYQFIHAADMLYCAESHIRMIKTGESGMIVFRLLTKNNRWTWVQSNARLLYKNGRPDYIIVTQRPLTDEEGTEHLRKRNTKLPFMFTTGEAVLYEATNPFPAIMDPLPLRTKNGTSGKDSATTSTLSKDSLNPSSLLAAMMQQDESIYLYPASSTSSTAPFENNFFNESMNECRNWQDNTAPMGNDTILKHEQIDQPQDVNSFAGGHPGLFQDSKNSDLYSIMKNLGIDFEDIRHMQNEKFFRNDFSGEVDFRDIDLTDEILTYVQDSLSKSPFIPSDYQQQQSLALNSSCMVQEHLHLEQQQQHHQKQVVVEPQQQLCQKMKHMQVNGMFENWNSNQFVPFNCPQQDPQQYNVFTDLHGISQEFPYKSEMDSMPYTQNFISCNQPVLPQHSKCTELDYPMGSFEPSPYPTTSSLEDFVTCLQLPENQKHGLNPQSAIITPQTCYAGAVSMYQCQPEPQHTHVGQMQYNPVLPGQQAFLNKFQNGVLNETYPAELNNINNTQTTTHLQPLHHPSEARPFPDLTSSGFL", "sequence (P27540 whole entry partner)": "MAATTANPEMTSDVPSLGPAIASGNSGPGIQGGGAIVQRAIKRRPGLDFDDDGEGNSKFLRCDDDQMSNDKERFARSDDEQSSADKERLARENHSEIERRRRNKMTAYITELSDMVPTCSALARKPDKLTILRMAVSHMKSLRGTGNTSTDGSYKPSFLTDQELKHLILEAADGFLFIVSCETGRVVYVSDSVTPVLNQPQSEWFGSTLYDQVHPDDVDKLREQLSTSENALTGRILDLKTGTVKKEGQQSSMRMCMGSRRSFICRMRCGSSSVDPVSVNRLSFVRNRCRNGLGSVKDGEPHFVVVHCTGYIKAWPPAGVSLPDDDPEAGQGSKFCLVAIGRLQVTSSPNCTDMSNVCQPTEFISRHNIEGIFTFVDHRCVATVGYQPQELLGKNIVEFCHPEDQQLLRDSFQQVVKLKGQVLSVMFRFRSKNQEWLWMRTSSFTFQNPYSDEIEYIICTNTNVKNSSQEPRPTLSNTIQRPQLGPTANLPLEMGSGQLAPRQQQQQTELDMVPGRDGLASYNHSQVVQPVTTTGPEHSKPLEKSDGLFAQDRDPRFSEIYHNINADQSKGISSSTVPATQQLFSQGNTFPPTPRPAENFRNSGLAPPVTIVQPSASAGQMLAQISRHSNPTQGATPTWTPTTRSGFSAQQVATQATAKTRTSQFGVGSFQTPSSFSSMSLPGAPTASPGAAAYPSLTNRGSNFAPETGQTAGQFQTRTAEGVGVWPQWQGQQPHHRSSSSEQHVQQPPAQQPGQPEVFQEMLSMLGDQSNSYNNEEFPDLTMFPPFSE", "assay": "Yeast AhR-signaling assay", "assay_type": "cell-based"}, "[4]": {"target": "T2, P450 1A2 (Homo sapiens, UniProt P05177)", "T2 sequence (P05177 1-516)": "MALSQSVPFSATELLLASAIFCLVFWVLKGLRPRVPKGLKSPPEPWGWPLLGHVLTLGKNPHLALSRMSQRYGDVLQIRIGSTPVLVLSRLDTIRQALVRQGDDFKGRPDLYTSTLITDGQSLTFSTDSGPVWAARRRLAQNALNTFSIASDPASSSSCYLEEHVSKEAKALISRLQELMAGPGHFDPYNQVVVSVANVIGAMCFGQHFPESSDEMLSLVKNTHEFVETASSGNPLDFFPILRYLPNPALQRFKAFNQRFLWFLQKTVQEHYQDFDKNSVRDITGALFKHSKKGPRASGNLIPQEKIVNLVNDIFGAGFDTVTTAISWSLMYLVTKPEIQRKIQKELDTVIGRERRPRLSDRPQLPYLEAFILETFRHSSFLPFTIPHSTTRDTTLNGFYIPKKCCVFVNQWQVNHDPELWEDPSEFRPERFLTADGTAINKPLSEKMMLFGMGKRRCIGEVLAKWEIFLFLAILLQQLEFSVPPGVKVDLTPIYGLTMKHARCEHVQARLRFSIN", "assay": "Time-dependent inhibition of P450 1A2", "details": "for KI (time-dependent inhibition of P450 1A2): Kitz-Wilson plot"}, "[5]": {"target": "T3, P450 1B1 (Homo sapiens, UniProt Q16678)", "T3 sequence (Q16678 1-543)": "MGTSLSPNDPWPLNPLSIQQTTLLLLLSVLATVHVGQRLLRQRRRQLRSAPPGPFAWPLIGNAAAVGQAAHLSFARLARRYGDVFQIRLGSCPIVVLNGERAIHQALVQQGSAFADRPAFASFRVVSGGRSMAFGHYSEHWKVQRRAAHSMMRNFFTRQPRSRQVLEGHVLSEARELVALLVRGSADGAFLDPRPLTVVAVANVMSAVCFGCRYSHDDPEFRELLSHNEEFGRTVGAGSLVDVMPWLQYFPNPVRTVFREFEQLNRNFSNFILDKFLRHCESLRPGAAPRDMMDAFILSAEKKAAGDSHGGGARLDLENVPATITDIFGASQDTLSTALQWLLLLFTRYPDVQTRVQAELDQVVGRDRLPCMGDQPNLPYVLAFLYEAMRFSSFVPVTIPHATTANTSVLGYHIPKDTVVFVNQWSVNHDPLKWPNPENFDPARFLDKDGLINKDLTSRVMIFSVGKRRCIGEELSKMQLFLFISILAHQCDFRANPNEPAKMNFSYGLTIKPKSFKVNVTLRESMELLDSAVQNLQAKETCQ", "assay": "NADPH-dependency assay, P450 1B1", "details": "10 nM (0.01 μM) inhibitor, with or without 5 min NADPH preincubation"}, "[6]": {"target": "T4, P450 1A1 (Homo sapiens, UniProt P04798)", "T4 sequence (P04798 1-512)": "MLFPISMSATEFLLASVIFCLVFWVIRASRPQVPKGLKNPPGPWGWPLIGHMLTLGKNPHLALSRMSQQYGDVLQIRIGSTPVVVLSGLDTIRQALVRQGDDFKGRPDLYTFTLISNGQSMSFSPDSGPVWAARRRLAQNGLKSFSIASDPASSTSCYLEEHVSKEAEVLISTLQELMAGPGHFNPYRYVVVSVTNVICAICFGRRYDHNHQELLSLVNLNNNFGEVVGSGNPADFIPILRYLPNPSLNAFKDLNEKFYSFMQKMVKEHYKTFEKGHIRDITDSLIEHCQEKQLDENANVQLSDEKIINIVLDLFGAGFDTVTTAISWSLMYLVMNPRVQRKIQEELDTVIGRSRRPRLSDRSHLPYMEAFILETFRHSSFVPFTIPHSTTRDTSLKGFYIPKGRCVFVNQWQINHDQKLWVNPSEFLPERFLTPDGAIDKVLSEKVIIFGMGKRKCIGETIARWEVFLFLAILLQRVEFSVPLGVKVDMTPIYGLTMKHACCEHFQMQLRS", "assay": "NADPH-dependency assay, P450 1A1", "details": "10 nM (0.01 μM) inhibitor, with or without 5 min NADPH preincubation"}, "[7]": {"target": "T5, CYP1A2 (Homo sapiens, UniProt P05177)", "T5 sequence (P05177 1-516)": "T2 sequence (P05177 1-516)", "assay": "NADPH-dependency assay, P450 1A2", "details": "human, pH 7.6, probe methoxyresorufin (MROD), 5 µM"}, "[8]": {"target": "T2, P450 1A2", "assay": "NADPH-dependency assay, P450 1A2", "details": "10 nM inhibitor, without NADPH preincubation"}}, "note": "Where two headings read alike, the source gives them in different places."}
{"smiles": "O=c1cc(C(F)(F)F)c2ccc3c(c2o1)C=CCO3", "note": "[Compound 20, 4-(Trifluoromethyl)pyrano[2,3-f]chromen-2(8H)-one]", "values": [{"measurement": "concentration not toxic to HepG2 cells", "setting": "[1]", "result": "≤ 10^−5 M"}, {"measurement": "concentrations decreasing MROD activity in HepG2 cells", "setting": "[2]; 24 h incubation, read at 10, 30, 60 min", "result": "higher than 10^−6 M"}, {"measurement": "concentrations decreasing MROD activity in HepG2 cells", "setting": "[2]; in-cell P450 1A2 inhibition assays", "result": "higher than 1 μM"}, {"measurement": "influence on βNF-induced AhR activation", "setting": "[3]; 10^−4 to 10^−10 M compound combined with 10^−8 M βNF", "result": "do not influence"}, {"measurement": "concentration at which AhR is not activated", "setting": "[3]; yeast AhR activation assays", "result": "lower than 1 μM"}, {"measurement": "concentrations at which AhR-signaling pathway is not activated", "setting": "[3]; yeast strain MYA-3637", "result": "lower than 10^−6 M"}, {"measurement": "mode of inhibition of P450 1A2 (time dependence)", "setting": "[4]", "result": "competitive inhibitor"}]}
{"smiles": "Cc1cc2c(ccc3c(=O)cc(-c4ccccc4)oc32)o1", "note": "[Compound 3, 8-Methyl-2-phenyl-4H-furo[2,3-h]chromen-4-one]", "values": [{"measurement": "effect on P450 1B1 activity", "setting": "[5]", "result": "does not influence"}, {"measurement": "concentrations showing considerable activation of AhR", "setting": "[3]; yeast strain MYA-3637", "result": "higher than 10^−7 M"}, {"measurement": "mode of inhibition of P450 1A2 (time dependence)", "setting": "[4]", "result": "time-dependent inhibitor"}, {"measurement": "KI (time-dependent inhibition of P450 1A2)", "setting": "[4]", "result": 440, "unit": "nM"}, {"measurement": "mode of inhibition of P450 1A2 (time dependence)", "setting": "[4]; listed as 7,8-furanoflavone", "result": "time-dependently inhibits"}, {"measurement": "mode of inhibition of P450 1A2 (time dependence)", "setting": "[4]; listed as 78FF", "result": "time- and NADPH-dependent inhibition"}, {"measurement": "effect on P450 1A1 activity", "setting": "[6]", "result": "does not influence"}, {"measurement": "inhibition at 6 min, 0.01 µM", "setting": "[7]", "result": 90, "unit": "%"}, {"measurement": "effect on P450 1A2 activity without NADPH preincubation", "setting": "[8]", "result": "significant inhibition"}]}
{"smiles": "O=c1cc(-c2ccccc2)oc2ccc3ccccc3c12", "note": "[βNF, β-naphthoflavone, reference compound]", "values": [{"measurement": "effect on MROD activity in HepG2 cells", "setting": "[2]; 10^−5 M, 24 h incubation, read at 10, 30, 60 min", "result": "increased"}, {"measurement": "activation of AhR-signaling pathway (Abs405/Abs600)", "setting": "[3]; 10^−8 M, positive control, compared with blank control (1% DMSO)", "result": "great activation"}]}
{"smiles": "Cc1cc2c(cc(O)c3c(=O)cc(-c4ccccc4)oc32)o1", "note": "[Compound 8, 5-Hydroxy-8-methyl-2-phenyl-4H-furo[2,3-h]chromen-4-one]", "values": [{"measurement": "effect on P450 1B1 activity", "setting": "[5]", "result": "does not influence"}, {"measurement": "mode of inhibition of P450 1A2 (time dependence)", "setting": "[4]", "result": "time- and NADPH-dependent inhibition"}, {"measurement": "KI (time-dependent inhibition of P450 1A2)", "setting": "[4]", "result": 120, "unit": "nM"}, {"measurement": "effect on P450 1A1 activity", "setting": "[6]", "result": "does not influence"}, {"measurement": "inhibition at 6 min, 0.01 µM", "setting": "[7]", "result": 90, "unit": "%"}]}
